Data reported in patent US9550782B2, “Compounds and methods for treating diabetes” (Medivation Technologies, Inc., priority 2011, dated 2017).
Where “and” joins values, the source holds several entries; their conditions need not be identical. Equal values may be shown once. Read-outs that look alike come from different tables or passages of the source. One block for each compound: values may come before it.

How the values were obtained:
[1] = target: T1, rat adrenergic α1B receptor (Rattus norvegicus, UniProt P15823); test: Radioligand binding, adrenergic α1B ([3H]Prazosin); design: species or system Wistar Rat; conditions: for inhibition at 0.1 µM: read-out: Percentage inhibition of ligand binding, Adrenergic α1B (0.1 μM), compound at 0.1 μM, repeat datapoints each shown
T1 construct: rat adrenergic α1B receptor obtained from Wistar Rat liver; from tissue; host or cells: Wistar rat liver
T1 sequence (P15823 1-515): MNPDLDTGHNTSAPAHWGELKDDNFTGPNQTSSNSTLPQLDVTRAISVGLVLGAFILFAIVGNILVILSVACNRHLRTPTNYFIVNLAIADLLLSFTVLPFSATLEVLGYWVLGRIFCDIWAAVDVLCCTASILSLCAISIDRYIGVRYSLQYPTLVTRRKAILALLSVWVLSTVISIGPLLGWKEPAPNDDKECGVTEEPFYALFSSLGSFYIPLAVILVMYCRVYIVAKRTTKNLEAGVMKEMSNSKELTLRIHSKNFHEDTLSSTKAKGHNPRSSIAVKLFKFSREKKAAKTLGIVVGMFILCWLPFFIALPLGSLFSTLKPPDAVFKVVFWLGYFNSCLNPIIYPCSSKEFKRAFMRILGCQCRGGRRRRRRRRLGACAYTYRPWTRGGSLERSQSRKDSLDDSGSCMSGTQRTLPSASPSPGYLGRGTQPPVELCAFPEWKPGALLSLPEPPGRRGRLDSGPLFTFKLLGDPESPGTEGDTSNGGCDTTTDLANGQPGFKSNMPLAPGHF
Description: To evaluate in radioligand binding assays the activity of compounds of the invention, rat adrenergic α1B receptor obtained from Wistar Rat liver (Garcia-S'ainz, J. et al, Biochem. Biophys. Res. Commun. 186:760, 1992; Michel, A. et al, Br. J. Pharmacol. 98:883, 1989) in a modified Tris-HCl buffer (50 mM Tris-HCl buffer, pH 7.4, 0.5 mM EDTA) was used. Compounds of the invention were incubated with 0.25 nM [^3H]Prazosin for 60 min at 25° C. Non-specific binding was estimated in the presence of 10 μM phentolamine. Receptor proteins were filtered and washed, the filters were then counted to determine [^3H]Prazosin specifically bound. […] Compounds of the invention were tested in this biochemical assay and percent inhibition of specific binding was determined. Biochemical assay results are presented as the percent inhibition of specific binding in Table B1.

[2] = target: T2, human recombinant adrenergic α2A receptor (Homo sapiens, UniProt P08913); test: Radioligand binding, adrenergic α2A ([3H]MK-912); conditions: [3H]MK-912
T2 construct: expressed in transfected cells; host or cells: insect Sf9 cells
T2 sequence (P08913 1-465): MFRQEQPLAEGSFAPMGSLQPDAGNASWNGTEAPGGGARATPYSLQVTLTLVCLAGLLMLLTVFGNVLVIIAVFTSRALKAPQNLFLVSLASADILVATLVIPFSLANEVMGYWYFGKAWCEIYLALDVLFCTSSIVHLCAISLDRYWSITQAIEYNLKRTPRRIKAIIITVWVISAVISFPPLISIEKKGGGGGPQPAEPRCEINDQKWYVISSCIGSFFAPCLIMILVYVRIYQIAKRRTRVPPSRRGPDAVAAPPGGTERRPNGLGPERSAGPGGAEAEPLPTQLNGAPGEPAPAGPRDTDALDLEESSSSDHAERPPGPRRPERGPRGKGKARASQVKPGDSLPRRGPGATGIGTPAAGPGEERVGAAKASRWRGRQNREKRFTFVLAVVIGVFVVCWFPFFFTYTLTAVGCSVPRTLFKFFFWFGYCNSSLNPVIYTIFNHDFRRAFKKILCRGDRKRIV
Description: To evaluate in radioligand binding assays the activity of compounds of the invention, human recombinant adrenergic α2A receptor expressed in insect Sf9 cells (Uhlen, S. et al, J. Pharmacol. Exp. Ther. 271:1558, 1994) in a modified Tris-HCl buffer (50 mM Tris-HCl, pH 7.4, 12.5 mM MgCl2, 2 mM EDTA) was used. Compounds of invention were incubated with 1 nM [^3H]MK-912 for 60 min at 25° C. MK912 is (2S-trans)-1,3,4,5′,6,6′,7,12b-octahydro-1′,3′-dimethyl-spiro[2H-benzofuro[2,3-a]quinolizine-2,4′(1′H)-pyrimidin]-2′(3′H)-one hydrochloride. Non-specific binding was estimated in the presence of 10 μM WB-4101 (2-(2,6-Dimethoxyphenoxyethyl)aminomethyl-1,4-benzodioxane hydrochloride). Receptor proteins were filtered and washed, the filters were then counted to determine [^3H]MK-912 specifically bound. […] Compounds of the invention were tested in this biochemical assay and percent inhibition of specific binding was determined. Biochemical assay results are presented as the percent inhibition of specific binding in Table B1.

[3] = compound at 0.1 μM, repeat datapoints each shown, 0.1 µM

inhibition at 0.1 µM [1]: 15%
SMILES: Cc1ccc2c(c1)c1c(n2CC(N=[N+]=[N-])c2ccncc2)CCN(C)C1 (racemic) [V-1, 5-(2-azido-2-(pyridin-4-yl)ethyl)-2,3,4,5-tetrahydro-2,8-dimethyl-1H-pyrido[4,3-b]indole]

Percentage inhibition of ligand binding, Adrenergic α2A (0.1 μM) [2, 3]: 29%
Percentage inhibition of ligand binding, Adrenergic α1B (0.1 μM) [1, 3]: 11%
SMILES: CCC(O)(Cn1c2c(c3cc(C)ccc31)CN(C)CC2)c1ccc(F)cc1 (single isomer, unassigned) [34a]

Percentage inhibition of ligand binding, Adrenergic α2A ([2]; 0.1 μM compound, 0.1 µM): 46%
Percentage inhibition of ligand binding, Adrenergic α1B ([1]; 0.1 μM compound, 0.1 µM): 73%
SMILES: Cc1ccc2c(c1)c1c(n2CC(O)c2ccncc2)CCN2CCCC12 (single isomer, unassigned) [129a]

Percentage inhibition of ligand binding, Adrenergic α2A ([2]; 0.1 μM compound, 0.1 µM): 55%
Percentage inhibition of ligand binding, Adrenergic α1B ([1]; 0.1 μM compound, 0.1 µM): 69%
SMILES: Cc1ccc2c(c1)c1c(n2CC(O)c2ccncc2)CCN2CCCC12 (single isomer, unassigned) [129b]

inhibition at 0.03 µM ([2]; 0.03 μM compound, read-out: Percentage inhibition of ligand binding, Adrenergic α2A): 14%
inhibition at 0.1 µM ([2]; 0.1 μM compound, read-out: Percentage inhibition of ligand binding, Adrenergic α2A): 29%
SMILES: Cc1ccc2c(c1)c1c(n2CC(O)c2ccncc2)CCN2CCCC12 (single isomer, unassigned) [129c]

SMILES: Cc1ccc2c(c1)c1c(n2CC(OC(=O)C(C)(C)C)c2ccncc2)CCN(C)C1 (single isomer, unassigned) [130b]
Percentage inhibition of ligand binding, Adrenergic α2A ([2]; 0.03 μM compound, 0.03 µM): 13%
Percentage inhibition of ligand binding, Adrenergic α2A ([2]; 0.1 μM compound, 0.1 µM): 31%
Percentage inhibition of ligand binding, Adrenergic α1B ([1]; 0.03 μM compound, 0.03 µM): 2%
Percentage inhibition of ligand binding, Adrenergic α1B ([1]; 0.1 μM compound, 0.1 µM): 8% and 11%

Percentage inhibition of ligand binding, Adrenergic α1B ([1]; 0.1 μM compound, 0.1 µM): 43%
SMILES: CN1CCc2c(c3cc(Cl)ccc3n2CC(C)(O)c2ccc(C(F)(F)F)nc2)C1 (single isomer, unassigned) [143a]

Percentage inhibition of ligand binding, Adrenergic α2A ([2]; 0.1 μM compound, 0.1 µM): 5%
Percentage inhibition of ligand binding, Adrenergic α1B ([1]; 0.1 μM compound, 0.1 µM): 7%
SMILES: Cc1ccc2c(c1)c1c(n2CC(c2ccncc2)N(C)C)CCN(C)C1 (single isomer, unassigned) [150b]

Percentage inhibition of ligand binding, Adrenergic α2A ([2]; 0.1 μM compound): 17%
SMILES: Cc1ccc2c(c1)c1c(n2CC(c2ccncc2)N2CCCC2)CCN(C)C1 (single isomer, unassigned) [152a]

Percentage inhibition of ligand binding, Adrenergic α1B ([1]; 0.1 μM compound): 7%
SMILES: Cc1ccc2c(c1)c1c(n2CC(c2ccncc2)N2CCCC2)CCN(C)C1 (single isomer, unassigned) [152b]

SMILES: Cc1ccc2c(c1)c1c(n2CC(N)c2ccncc2)CC2CCC1N2C (single isomer, unassigned) [155a]
Percentage inhibition of ligand binding, Adrenergic α2A ([2]; 0.1 μM compound, 0.1 µM): −1%

Percentage inhibition of ligand binding, Adrenergic α2A ([2]; compound at 0.1 μM, 0.1 µM): 64%
SMILES: CN1CCc2c(n(CC(O)c3ccc(F)c(F)c3)c3ccc(Cl)cc23)CC1 (single isomer, unassigned) [339b]

Percentage inhibition of ligand binding, Adrenergic α2A ([2]; compound at 0.1 μM, 0.1 µM): 4%
SMILES: OCCN1CCc2c(c3cc(Cl)ccc3n2CC(O)c2ccncc2)C1 (single isomer, unassigned) [II-93b]

SMILES: CC(O)(Cn1c2c(c3cc(Cl)ccc31)CN(C1CCC1)CC2)c1cccnc1 (single isomer, unassigned) [II-118a]
Percentage inhibition of ligand binding, Adrenergic α2A (0.1 μM) [2, 3]: 3%

Percentage inhibition of ligand binding, Adrenergic α1B (0.1 μM) [1, 3]: 11%
SMILES: Cc1ccc2c(c1)c1c(n2CC(C)(O)c2cccnc2)C(O)CN(C)C1 (single isomer, unassigned) [II-151a]

Percentage inhibition of ligand binding, Adrenergic α1B (0.03 μM) ([1]; compound at 0.03 μM, repeat datapoints each shown): 43%
SMILES: CC(O)(Cn1c2c(c3cc(Cl)cnc31)C1CCCN1CC2)c1cccnc1 (single isomer, unassigned) [IV-210a]

Percentage inhibition of ligand binding, Adrenergic α1B (0.1 μM) [1, 3]: 57%
SMILES: Cc1ccc2c(c1)c1c(n2CC(O)c2ccc(F)cc2)CCN(C)C1 (centres unmarked) [30a]

Percentage inhibition of ligand binding, Adrenergic α2A ([2]; 0.1 μM compound): 63%
SMILES: Cc1ccc2c(c1)c1c(n2CC(O)c2ccc(C#N)cc2)CCN(C)C1 (centres unmarked) [142b]

Percentage inhibition of ligand binding, Adrenergic α1B ([1]; compound at 0.1 μM): 25%
SMILES: Cc1ccc2c(c1)c1c(n2CC(O)c2cn[nH]c2)CCN(C)C1 (centres unmarked) [II-106a]

inhibition at 0.1 µM ([2]; read-out: Percentage inhibition of ligand binding, Adrenergic α2A (0.1 μM), compound at 0.1 μM, repeat datapoints each shown): 16%
SMILES: CN1CCc2c(c3cc(Cl)ccc3n2CC(O)c2cccnc2)C1 (centres unmarked) [compound 7]

inhibition at 0.1 µM [1]: 81%
SMILES: Cc1cnc2c(c1)c1c(n2CCc2ccc(C)nc2)CCN2CCCC12 (centres unmarked) [compound 74, 10-methyl-7-(2-(6-methylpyridin-3-yl)ethyl)-2,3,5,6,7,1c-hexahydro-1H-pyrido[3′,2′:4,5]pyrrolo[2,3-g]indolizine]
